From PubChem BioAssay (NCI)
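Each compound was tested at five concentrations against cells in 96-well plates for 48 hours. The concentration for full growth arrest is given as TGI.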

Columns and labels:
Assay in all cases: NCI tumour cell line growth inhibition, 48 h
[1] = tested on: MDA-MB-231 breast
[2] = tested on: NCI-H460 lung
[3] = tested on: SK-OV-3 ovarian
[4] = tested on: MCF7 breast
[5] = tested on: DU-145 prostate
[6] = tested on: M14 melanoma
[7] = tested on: COLO 205 colon
[8] = tested on: NCI-H23 lung
[9] = tested on: SNB-75 CNS
[10] = tested on: SF-268 CNS
[11] = tested on: MDA-N
[12] = tested on: MDA-MB-435
[13] = tested on: HCC-2998 colon
[14] = tested on: HOP-62 NSCLC
[15] = tested on: UACC-62 melanoma
[16] = tested on: SK-MEL-5 melanoma
[17] = tested on: HOP-92 NSCLC
[18] = tested on: U251 CNS
[19] = tested on: OVCAR-4 ovarian
[20] = tested on: TK-10 renal
[21] = tested on: HCT-15 colon
[22] = tested on: ACHN renal
[23] = tested on: BT-549 breast
[24] = tested on: CCRF-CEM leukemia
[25] = tested on: 786-0 renal
[26] = tested on: A549 NSCLC
[27] = tested on: IGROV1 ovarian
[28] = tested on: K-562 leukemia
[29] = tested on: OVCAR-8 ovarian
[30] = tested on: NCI/ADR-RES ovarian
[31] = tested on: PC-3 prostate
[32] = tested on: SN12C renal
[33] = tested on: HL-60(TB) leukemia
[34] = tested on: UO-31 renal
[35] = tested on: KM12 colon
[36] = tested on: SNB-19 CNS
[37] = tested on: CAKI-1 renal
[38] = tested on: OVCAR-3 ovarian
[39] = tested on: UACC-257 melanoma
[40] = tested on: MOLT-4 leukemia
[41] = tested on: HT29 colon
[42] = tested on: LOX IMVI melanoma
[43] = tested on: SF-539 CNS
[44] = tested on: HCT-116 colon
[45] = tested on: SK-MEL-28 melanoma
[46] = tested on: T-47D breast
[47] = tested on: SK-MEL-2 melanoma
[48] = tested on: SF-295 CNS
[49] = tested on: OVCAR-5 ovarian
[50] = tested on: HS 578T breast
[51] = tested on: MALME-3M melanoma
[52] = tested on: A498 renal
[53] = tested on: EKVX NSCLC
[54] = tested on: RXF 393 renal
[55] = tested on: SW-620 colon
[56] = tested on: RPMI-8226 leukemia
[57] = tested on: NCI-H522 lung

Q: Which TGI [1] does the source give for `CC[N+]1(C)CCC(O)(/C=C/c2ccc(Cl)cc2)C(C(=O)/C=C/c2ccc(Cl)cc2)C1` (configuration not stated) here?
A: The TGI was greater than 31.5 µM.

Q: And the TGI [2]?
A: The TGI was greater than 28.2 µM.

Q: What about the TGI [3] of the same compound?
A: Its TGI is 36.8 µM.

Q: And the TGI [4]?
A: Its TGI is greater than 36.6 µM.

Q: And the TGI [5]?
A: Its TGI is 27.6 µM.

Q: What about the TGI [6] of the same compound?
A: Its TGI is greater than 38 µM.

Q: And the TGI [7]?
A: The TGI was greater than 26.5 µM.

Q: What about the TGI [8] of the same compound?
A: The TGI was 30.3 µM.

Q: What about the TGI [9] of the same compound?
A: The TGI was 26.7 µM.

Q: And the TGI [10]?
A: Its TGI is greater than 60.6 µM.

Q: And the TGI [11]?
A: Its TGI is greater than 34.4 µM.

Q: And the TGI [12]?
A: Its TGI is 22.4 µM.

Q: What about the TGI [13] of the same compound?
A: The TGI was 45.1 µM.

Q: What about the TGI [14] of the same compound?
A: Its TGI is 39.3 µM.

Q: What about the TGI [15] of the same compound?
A: Its TGI is 37.4 µM.

Q: And the TGI [16]?
A: Its TGI is greater than 45.8 µM.

Q: And the TGI [17]?
A: The TGI was 9.11 µM.

Q: What about the TGI [18] of the same compound?
A: Its TGI is 20.8 µM.

Q: And the TGI [19]?
A: Its TGI is greater than 67.2 µM.

Q: And the TGI [20]?
A: Its TGI is 13 µM.

Q: And the TGI [21]?
A: Its TGI is greater than 51.6 µM.

Q: What about the TGI [22] of the same compound?
A: The TGI was 13.6 µM.

Q: What about the TGI [23] of the same compound?
A: Its TGI is 39.3 µM.

Q: And the TGI [24]?
A: Its TGI is 3.85 µM.

Q: What about the TGI [25] of the same compound?
A: Its TGI is greater than 26.5 µM.

Q: What about the TGI [26] of the same compound?
A: The TGI was 43 µM.

Q: And the TGI [27]?
A: Its TGI is greater than 22.4 µM.

Q: And the TGI [28]?
A: Its TGI is 5.71 µM.

Q: And the TGI [29]?
A: Its TGI is 51 µM.

Q: And the TGI [30]?
A: Its TGI is 39.7 µM.

Q: And the TGI [31]?
A: The TGI was 27.7 µM.

Q: And the TGI [32]?
A: The TGI was 27.1 µM.

Q: What about the TGI [33] of the same compound?
A: The TGI was 4.87 µM.

Q: And the TGI [34]?
A: The TGI was 20.2 µM.

Q: What about the TGI [35] of the same compound?
A: Its TGI is 10.3 µM.

Q: And the TGI [36]?
A: Its TGI is 17.4 µM.

Q: What about the TGI [37] of the same compound?
A: The TGI was 3.71 µM.

Q: What about the TGI [38] of the same compound?
A: Its TGI is greater than 61 µM.

Q: What about the TGI [39] of the same compound?
A: The TGI was greater than 52 µM.

Q: And the TGI [40]?
A: The TGI was 6.52 µM.

Q: What about the TGI [41] of the same compound?
A: The TGI was 14.1 µM.

Q: And the TGI [42]?
A: The TGI was greater than 21.6 µM.

Q: And the TGI [43]?
A: The TGI was greater than 20.5 µM.

Q: What about the TGI [44] of the same compound?
A: The TGI was 29.1 µM.

Q: And the TGI [45]?
A: The TGI was 23.2 µM.

Q: And the TGI [46]?
A: Its TGI is 77.4 µM.

Q: And the TGI [47]?
A: Its TGI is 39 µM.

Q: And the TGI [48]?
A: Its TGI is 37 µM.

Q: And the TGI [49]?
A: Its TGI is greater than 53.7 µM.

Q: And the TGI [50]?
A: The TGI was greater than 30.1 µM.

Q: And the TGI [51]?
A: The TGI was 24.3 µM.

Q: What about the TGI [52] of the same compound?
A: The TGI was 30.2 µM.

Q: And the TGI [53]?
A: The TGI was greater than 57.3 µM.

Q: What about the TGI [54] of the same compound?
A: The TGI was 25.4 µM.

Q: How did the TGI [1] turn out when `Fc1ccc(Nc2nnc(-c3ccccn3)s2)cc1` was run?
A: Its TGI is greater than 100 µM.

Q: And the TGI [2]?
A: Its TGI is greater than 100 µM.

Q: And the TGI [3]?
A: Its TGI is greater than 100 µM.

Q: What about the TGI [4] of the same compound?
A: Its TGI is greater than 100 µM.

Q: What about the TGI [5] of the same compound?
A: The TGI was greater than 100 µM.

Q: What about the TGI [6] of the same compound?
A: The TGI was greater than 100 µM.

Q: What about the TGI [7] of the same compound?
A: The TGI was greater than 100 µM.

Q: What about the TGI [8] of the same compound?
A: The TGI was greater than 100 µM.

Q: What about the TGI [10] of the same compound?
A: Its TGI is greater than 100 µM.

Q: And the TGI [11]?
A: Its TGI is greater than 100 µM.

Q: And the TGI [12]?
A: The TGI was greater than 100 µM.

Q: And the TGI [14]?
A: Its TGI is greater than 100 µM.

Q: What about the TGI [15] of the same compound?
A: The TGI was greater than 100 µM.

Q: And the TGI [16]?
A: Its TGI is greater than 100 µM.

Q: And the TGI [17]?
A: The TGI was greater than 100 µM.

Q: What about the TGI [18] of the same compound?
A: Its TGI is greater than 100 µM.

Q: What about the TGI [19] of the same compound?
A: The TGI was greater than 100 µM.

Q: And the TGI [20]?
A: Its TGI is greater than 100 µM.

Q: What about the TGI [55] of the same compound?
A: The TGI was greater than 100 µM.

Q: What about the TGI [21] of the same compound?
A: The TGI was greater than 100 µM.

Q: What about the TGI [22] of the same compound?
A: The TGI was greater than 100 µM.

Q: What about the TGI [23] of the same compound?
A: The TGI was greater than 100 µM.

Q: What about the TGI [24] of the same compound?
A: The TGI was greater than 100 µM.

Q: And the TGI [25]?
A: Its TGI is greater than 100 µM.

Q: What about the TGI [26] of the same compound?
A: The TGI was greater than 100 µM.

Q: And the TGI [27]?
A: Its TGI is greater than 100 µM.

Q: What about the TGI [29] of the same compound?
A: The TGI was greater than 100 µM.

Q: What about the TGI [30] of the same compound?
A: The TGI was greater than 100 µM.

Q: What about the TGI [31] of the same compound?
A: Its TGI is greater than 100 µM.

Q: What about the TGI [32] of the same compound?
A: Its TGI is greater than 100 µM.

Q: And the TGI [33]?
A: The TGI was greater than 100 µM.

Q: What about the TGI [35] of the same compound?
A: The TGI was greater than 100 µM.

Q: And the TGI [36]?
A: The TGI was greater than 100 µM.

Q: And the TGI [37]?
A: Its TGI is greater than 100 µM.

Q: And the TGI [38]?
A: Its TGI is greater than 100 µM.

Q: What about the TGI [39] of the same compound?
A: The TGI was greater than 100 µM.

Q: What about the TGI [40] of the same compound?
A: The TGI was greater than 100 µM.

Q: And the TGI [41]?
A: The TGI was greater than 100 µM.

Q: And the TGI [42]?
A: Its TGI is greater than 100 µM.

Q: And the TGI [43]?
A: The TGI was greater than 100 µM.

Q: And the TGI [44]?
A: The TGI was greater than 100 µM.

Q: What about the TGI [56] of the same compound?
A: Its TGI is greater than 100 µM.

Q: What about the TGI [45] of the same compound?
A: The TGI was greater than 100 µM.

Q: What about the TGI [46] of the same compound?
A: Its TGI is greater than 100 µM.

Q: What about the TGI [47] of the same compound?
A: The TGI was greater than 100 µM.

Q: And the TGI [48]?
A: Its TGI is greater than 100 µM.

Q: What about the TGI [49] of the same compound?
A: The TGI was greater than 100 µM.

Q: What about the TGI [50] of the same compound?
A: The TGI was greater than 100 µM.

Q: And the TGI [51]?
A: Its TGI is greater than 100 µM.

Q: What about the TGI [52] of the same compound?
A: Its TGI is greater than 100 µM.

Q: What about the TGI [57] of the same compound?
A: Its TGI is greater than 100 µM.

Q: What about the TGI [53] of the same compound?
A: Its TGI is greater than 100 µM.

Q: What about the TGI [54] of the same compound?
A: Its TGI is greater than 100 µM.
